# From PubChem BioAssay AID1918993 (Molecular Pharmacology Branch, DTP, NCI, 2023)
# System: 233499-124-R-J3-PDC complex spheroid growth
# Experiment: Anticancer human tumor 233499-124-R-J3-PDC patient-derived colon adenocarcinoma cell line growth inhibition [AhR]
# Settings: for IC50: curve of first compound; for viability, T/C: stronger effect = lower value
# Procedure, shortened: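 Agents were dosed in half-log steps down from roughly clinical Cmax, or from 10 microM where Cmax was unknown, alone and with AhR antagonists. Read-out: percent test/control growth of tumor spheroids containing HUVEC and MSC stromal cells.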
# [1] = second compound 0.1 µM, first compound 0.0316 µM
# [2] = second compound 0.1 µM, first compound 0.1 µM
# [3] = second compound 0.1 µM, first compound 0.316 µM
# [4] = second compound 0.1 µM, first compound 1 µM
# [5] = second compound 0.1 µM, first compound 3.16 µM
# [6] = second compound 0.1 µM, first compound 10 µM
# [7] = second compound 0.316 µM, first compound 0.0316 µM
# [8] = second compound 0.316 µM, first compound 0.1 µM
# [9] = second compound 0.316 µM, first compound 0.316 µM
# [10] = second compound 0.316 µM, first compound 1 µM
# [11] = second compound 0.316 µM, first compound 3.16 µM
# [12] = second compound 0.316 µM, first compound 10 µM
# [13] = second compound 1 µM, first compound 0.0316 µM
# [14] = second compound 1 µM, first compound 0.1 µM
# [15] = second compound 1 µM, first compound 0.316 µM
# [16] = second compound 1 µM, first compound 1 µM
# [17] = second compound 1 µM, first compound 3.16 µM
# [18] = second compound 1 µM, first compound 10 µM
# [19] = second compound 3.16 µM, first compound 0.0316 µM
# [20] = second compound 3.16 µM, first compound 0.1 µM
# [21] = second compound 3.16 µM, first compound 0.316 µM
# [22] = second compound 3.16 µM, first compound 1 µM
# [23] = second compound 3.16 µM, first compound 3.16 µM
# [24] = second compound 3.16 µM, first compound 10 µM
# [25] = second compound 10 µM, first compound 0.0316 µM
# [26] = second compound 10 µM, first compound 0.1 µM
# [27] = second compound 10 µM, first compound 0.316 µM
# [28] = second compound 10 µM, first compound 1 µM
# [29] = second compound 10 µM, first compound 3.16 µM
# [30] = second compound 10 µM, first compound 10 µM
# 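Further: spheroids exposed to agents for seven days before reading.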
structure (smiles),measurement,setting,value
CC1(C)CCC(CN2CCN(c3ccc(C(=O)NS(=O)(=O)c4ccc(NCC5CCOCC5)c([N+](=O)[O-])c4)c(Oc4cnc5[nH]ccc5c4)c3)CC2)=C(c2ccc(Cl)cc2)C1 + Cc1cncc(-c2nc(NCCc3c[nH]c4ccccc34)c3ncn(C(C)C)c3n2)c1,IC50,second compound 0.1 µM,> 10000 nM
same,IC50,second compound 0.316 µM,> 10000 nM
same,IC50,second compound 1 µM,> 10000 nM
same,IC50,second compound 3.16 µM,> 10000 nM
same,IC50,second compound 10 µM,< 31.6 nM
same,"viability, T/C",[1],103%
same,"viability, T/C",[2],97.9%
same,"viability, T/C",[3],92.6%
same,"viability, T/C",[4],104%
same,"viability, T/C",[5],100%
same,"viability, T/C",[6],109%
same,"viability, T/C",[7],82%
same,"viability, T/C",[8],95%
same,"viability, T/C",[9],88.2%
same,"viability, T/C",[10],95.7%
same,"viability, T/C",[11],96.8%
same,"viability, T/C",[12],96.3%
same,"viability, T/C",[13],94.6%
same,"viability, T/C",[14],84.2%
same,"viability, T/C",[15],85.8%
same,"viability, T/C",[16],82%
same,"viability, T/C",[17],85.2%
same,"viability, T/C",[18],89.3%
same,"viability, T/C",[19],71.6%
same,"viability, T/C",[20],68.5%
same,"viability, T/C",[21],76.5%
same,"viability, T/C",[22],63.5%
same,"viability, T/C",[23],70.3%
same,"viability, T/C",[24],81.7%
same,"viability, T/C",[25],12%
same,"viability, T/C",[26],9.79%
same,"viability, T/C",[27],7.48%
same,"viability, T/C",[28],23.7%
same,"viability, T/C",[29],8.38%
same,"viability, T/C",[30],15.6%
CCN(c1cc(-c2ccc(CN3CCOCC3)cc2)cc(C(=O)NCc2c(C)cc(C)[nH]c2=O)c1C)C1CCOCC1 + Cc1cncc(-c2nc(NCCc3c[nH]c4ccccc34)c3ncn(C(C)C)c3n2)c1,IC50,second compound 0.1 µM,> 3000 nM
same,IC50,second compound 0.316 µM,> 3000 nM
same,IC50,second compound 1 µM,> 3000 nM
same,IC50,second compound 3.16 µM,> 3000 nM
same,IC50,second compound 10 µM,< 9.49 nM
same,"viability, T/C","second compound 0.1 µM, first compound 0.00949 µM",99.1%
same,"viability, T/C","second compound 0.1 µM, first compound 0.03 µM",101%
same,"viability, T/C","second compound 0.1 µM, first compound 0.0949 µM",76%
same,"viability, T/C","second compound 0.1 µM, first compound 0.3 µM",82.3%
same,"viability, T/C","second compound 0.1 µM, first compound 0.949 µM",95.6%
same,"viability, T/C","second compound 0.1 µM, first compound 3 µM",90.3%
same,"viability, T/C","second compound 0.316 µM, first compound 0.00949 µM",108%
same,"viability, T/C","second compound 0.316 µM, first compound 0.03 µM",109%
same,"viability, T/C","second compound 0.316 µM, first compound 0.0949 µM",94.6%
same,"viability, T/C","second compound 0.316 µM, first compound 0.3 µM",100%
same,"viability, T/C","second compound 0.316 µM, first compound 0.949 µM",106%
same,"viability, T/C","second compound 0.316 µM, first compound 3 µM",94.6%
same,"viability, T/C","second compound 1 µM, first compound 0.00949 µM",80.3%
same,"viability, T/C","second compound 1 µM, first compound 0.03 µM",79.6%
same,"viability, T/C","second compound 1 µM, first compound 0.0949 µM",75.7%
same,"viability, T/C","second compound 1 µM, first compound 0.3 µM",78.6%
same,"viability, T/C","second compound 1 µM, first compound 0.949 µM",80.5%
same,"viability, T/C","second compound 1 µM, first compound 3 µM",84%
same,"viability, T/C","second compound 3.16 µM, first compound 0.00949 µM",76.4%
same,"viability, T/C","second compound 3.16 µM, first compound 0.03 µM",76.9%
same,"viability, T/C","second compound 3.16 µM, first compound 0.0949 µM",82.4%
same,"viability, T/C","second compound 3.16 µM, first compound 0.3 µM",89.5%
same,"viability, T/C","second compound 3.16 µM, first compound 0.949 µM",73.2%
same,"viability, T/C","second compound 3.16 µM, first compound 3 µM",76%
same,"viability, T/C","second compound 10 µM, first compound 0.00949 µM",16.1%
same,"viability, T/C","second compound 10 µM, first compound 0.03 µM",21%
same,"viability, T/C","second compound 10 µM, first compound 0.0949 µM",9.73%
same,"viability, T/C","second compound 10 µM, first compound 0.3 µM",10.7%
same,"viability, T/C","second compound 10 µM, first compound 0.949 µM",16.7%
same,"viability, T/C","second compound 10 µM, first compound 3 µM",3.73%
Cn1ncnc1C1c2n[nH]c(=O)c3cc(F)cc(c23)NC1c1ccc(F)cc1 (stereo not given) + Cc1cncc(-c2nc(NCCc3c[nH]c4ccccc34)c3ncn(C(C)C)c3n2)c1,IC50,second compound 0.1 µM,> 100 nM
same,IC50,second compound 0.316 µM,> 100 nM
same,IC50,second compound 1 µM,> 100 nM
same,IC50,second compound 3.16 µM,> 100 nM
same,IC50,second compound 10 µM,< 0.316 nM
same,"viability, T/C","second compound 0.1 µM, first compound 0.000316 µM",93.4%
same,"viability, T/C","second compound 0.1 µM, first compound 0.001 µM",97.3%
same,"viability, T/C","second compound 0.1 µM, first compound 0.00316 µM",109%
same,"viability, T/C","second compound 0.1 µM, first compound 0.01 µM",108%
same,"viability, T/C",[1],88.7%
same,"viability, T/C",[2],101%
same,"viability, T/C","second compound 0.316 µM, first compound 0.000316 µM",88.7%
same,"viability, T/C","second compound 0.316 µM, first compound 0.001 µM",81.3%
same,"viability, T/C","second compound 0.316 µM, first compound 0.00316 µM",93.5%
same,"viability, T/C","second compound 0.316 µM, first compound 0.01 µM",87.3%
same,"viability, T/C",[7],78.3%
same,"viability, T/C",[8],96.2%
same,"viability, T/C","second compound 1 µM, first compound 0.000316 µM",79.4%
same,"viability, T/C","second compound 1 µM, first compound 0.001 µM",75.9%
same,"viability, T/C","second compound 1 µM, first compound 0.00316 µM",78.8%
same,"viability, T/C","second compound 1 µM, first compound 0.01 µM",78%
same,"viability, T/C",[13],76.5%
same,"viability, T/C",[14],91.4%
same,"viability, T/C","second compound 3.16 µM, first compound 0.000316 µM",84.4%
same,"viability, T/C","second compound 3.16 µM, first compound 0.001 µM",81.2%
same,"viability, T/C","second compound 3.16 µM, first compound 0.00316 µM",73.2%
same,"viability, T/C","second compound 3.16 µM, first compound 0.01 µM",66.6%
same,"viability, T/C",[19],76.1%
same,"viability, T/C",[20],71.3%
same,"viability, T/C","second compound 10 µM, first compound 0.000316 µM",23.2%
same,"viability, T/C","second compound 10 µM, first compound 0.001 µM",13.3%
same,"viability, T/C","second compound 10 µM, first compound 0.00316 µM",23.2%
same,"viability, T/C","second compound 10 µM, first compound 0.01 µM",26.1%
same,"viability, T/C",[25],14.8%
same,"viability, T/C",[26],18.6%
NS(=O)(=O)OCC1CC(n2ccc3c(NC4CCc5ccccc54)ncnc32)CC1O (stereo not given) + Cc1cncc(-c2nc(NCCc3c[nH]c4ccccc34)c3ncn(C(C)C)c3n2)c1,IC50,second compound 0.1 µM,622 nM
same,IC50,second compound 0.316 µM,523 nM
same,IC50,second compound 1 µM,515 nM
same,IC50,second compound 3.16 µM,203 nM
same,IC50,second compound 10 µM,< 31.6 nM
same,"viability, T/C",[1],98.7%
same,"viability, T/C",[2],107%
same,"viability, T/C",[3],98.2%
same,"viability, T/C",[4],16.1%
same,"viability, T/C",[5],3.52%
same,"viability, T/C",[6],1.45%
same,"viability, T/C",[7],103%
same,"viability, T/C",[8],101%
same,"viability, T/C",[9],81.4%
same,"viability, T/C",[10],9.63%
same,"viability, T/C",[11],2.6%
same,"viability, T/C",[12],2.07%
same,"viability, T/C",[13],102%
same,"viability, T/C",[14],79.7%
same,"viability, T/C",[15],83.1%
same,"viability, T/C",[16],4.87%
same,"viability, T/C",[17],3.05%
same,"viability, T/C",[18],5.22%
same,"viability, T/C",[19],93.6%
same,"viability, T/C",[20],74.9%
same,"viability, T/C",[21],35.1%
same,"viability, T/C",[22],3.64%
same,"viability, T/C",[23],2.03%
same,"viability, T/C",[24],1%
same,"viability, T/C",[25],20.5%
same,"viability, T/C",[26],17.1%
same,"viability, T/C",[27],23.3%
same,"viability, T/C",[28],1.9%
same,"viability, T/C",[29],1.17%
same,"viability, T/C",[30],0.46%
